According to patent US20250154686A1, “COMPOUND LIBRARY” (CHUGAI SEIYAKU KABUSHIKI KAISHA, priority 2021, published 2025):
pKd: −log10 of the molar value.

How the values were obtained:
[1] = biological target: T1, Bcl-2 protein (Recombinant Human Bcl-2 Protein) (Homo sapiens, UniProt P10415); assay: AS-MS evaluation of binding of the mixture libraries of Examples 8 and 9 to Bcl-2, ASMS ratio (%), Example 11; settings: ASMS ratio, mixtures obtained from Example 9, 10 uM Bcl-2 protein; for AS-MS(%) N1: replicate N1; for AS-MS(%) N2: replicate N2; for AS-MS(%) N3: replicate N3 (additional day); for AS-MS(%) N4: replicate N4 (additional day)
T1 construct: purchased Novus Biologicals NBP2-34889
T1 sequence (P10415 whole entry): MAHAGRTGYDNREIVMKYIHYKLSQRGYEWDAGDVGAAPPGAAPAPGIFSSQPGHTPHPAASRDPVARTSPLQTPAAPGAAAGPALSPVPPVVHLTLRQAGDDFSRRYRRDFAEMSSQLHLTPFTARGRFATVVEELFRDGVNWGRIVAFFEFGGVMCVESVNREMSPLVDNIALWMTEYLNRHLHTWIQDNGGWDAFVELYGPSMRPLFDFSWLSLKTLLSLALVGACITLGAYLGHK
Description: DMSO solutions (prepared into approximately 5 mM based on calculation from the average molecular weight of each mixture) of the mixtures of each Example shown in Table 11-1-1 were respectively dispensed to 8 wells of MICROPLATE, 96-WELL, PP, V-BOTTOM (Greiner Bio-One International GmbH, 651201). 400 nL each from the 8 wells of the mixtures obtained from Example 8 was dispensed into 3 designated wells while 200 nL each from the 8 wells of the mixtures obtained from Example 9 was dispensed into 3 designated wells, using LABCYTE ECHO® 555 acoustic dispensing system (Beckman Coulter, Inc.). 200 nL each of two types of 10 μM positive controls (B2Q045-01 and B2Q048-01) was dispensed to the mixtures obtained from Example 8. Likewise, 100 nL each of two types of 20 μM positive controls and 400 nL of a DMSO solution by backfill was dispensed to the mixtures obtained from Example 9. Further, Bcl-2 protein (Novus Biologicals, NBP2-34889, Recombinant Human Bcl-2 Protein, Lot E60145051) (19.2 μL) prepared at 5 µM (final protein concentration) for the mixtures obtained from Example 8 and 10 µM (final protein concentration) for the mixtures obtained from Example 9, in advance using a Tris-HCl buffer (25 mM Tris-HCl, pH 7.4, 150 mM NaCl, 0.025% Tween-20, and 1 mM DTT) was added to the well containing the dispensed 1000 compounds or 500 compounds (final compound concentration: 100 nM), and the plate was incubated at 23° C. for 1 hour in the dark. Subsequently, 200 μL of an assay buffer (25 mM Tris-HCl, pH 7.4, 150 mM NaCl, 0.025% Tween-20, and 1 mM DTT) was centrifuged three times at 2000×G at 4° C. for 2 minutes using 96-well MacroSpin column, P-2 Material (Harvard Bioscience, Inc., 74-5655) that had been allowed to swell to condition the 96-well MacroSpin column. Subsequently, 20 μL of the sample thus incubated was added to the 96-well MacroSpin column, P-2 Material after the completion of conditioning, and SEC treatment was performed by centrifugation at 2000×G for 2 minutes. 32 μL of a 1:1 mixed solution of acetonitrile and methanol (LC/MS grade, FUJIFILM Wako Pure Chemical Corp.) was added to a flow-through liquid from SEC, and the mixture was centrifuged at 1800×G at 4° C. for 5 minutes. The supernatant was used as analysis sample ASMS (A). By a similar operation, a sample prepared at 500 compounds/well or 1000 compounds/well and supplemented with only a Tris-HCl buffer containing no Bcl-2 protein was incubated under the same conditions as above, and the same organic solvent as above was added thereto without 96-well MacroSpin column treatment. A supernatant obtained by a centrifugation operation was used as STD (B). Next, by a similar operation, a sample prepared at 1000 compounds/well or 500 compounds/well and supplemented with only a Tris-HCl buffer containing no Bcl-2 protein was incubated under the same conditions as above and treated with 96-well MacroSpin column in the same manner as above, and the same organic solvent as above was added thereto. A supernatant obtained by a centrifugation operation was used as BK (C). These samples were measured by reverse-phase LC/MS.
Then, the samples A, B and C were analyzed for the 1000 compounds or 500 compounds using TraceFinder 5.1 (Thermo Fisher Scientific Inc.) and CHANCE Software (in-house), and an ASMS ratio (%) was calculated according to the following expression.
The mixtures obtained from Example 8 were tested at the number of data of 2 (N1 and N2) in order to ensure reproducibility. The mixtures obtained from Example 9 were tested at the total number of data 4 (N1,N2, N3, and N4) involving the number of data of 2/day (N1 and N2) and data obtained on additional days.

Human Bcl-2 protein [2] = biological target: T2, Human Bcl-2 protein (Homo sapiens, UniProt P10415); assay: Evaluation of binding of compound to Bcl-2 by surface plasmon resonance (SPR)-2, Example 13; settings: for equilibrium dissociation constant KD compared with B2Q045-01 (KD=1.20 μM) or B2Q048-01 (KD=0.480 μM): Biacore T200, 15° C.; for pKd: Biacore T200, biotinylated Bcl-2 immobilized on Sensor Chip SA, 15° C., read-out: Equilibrium dissociation constant KD
T2 construct: purchased Novus Biologicals
T2 sequence (P10415 whole entry): as above
Description: (§1) A surface plasmon resonance method was used in order to analyze the binding affinity of the compounds synthesized in Example 12 for Bcl-2, which are shown in Table 13-1. The apparatus used was Biacore T200 (GE Healthcare Japan Corp.), and the running buffer used was HBS (10 mM HEPES-NaOH and 150 mM NaCl, pH 7.4) supplemented with 1 mM DTT, 3 mM EDTA, 0.01% Tween 20 and 4% DMSO. Human Bcl-2 protein (Novus Biologicals) was biotinylated using EZ-Link NHS-PEG4-Biotin (Thermo Fisher scientific Inc.) and immobilized on the surface of Sensor Chip SA (Cytiva). Then, compound solutions having a plurality of concentrations and the running buffer (blank) were added to the Bcl-2-immobilized surface to obtain the binding response of the compounds. Measurement was performed at 15° C.
The obtained sensorgrams were treated with Biacore T200 Evaluation Software, and the equilibrium dissociation constant KD of each compound for Bcl-2 was determined as shown in the following Table 13-2.

Human Bcl-2 protein [3] = biological target: T2, Human Bcl-2 protein; assay: Evaluation of binding of compound to Bcl-2 by surface plasmon resonance (SPR), Example 7; settings: for equilibrium dissociation constant compared with compound B2Q045-01: SPR, comparison with B2Q045-01; for binding to Bcl-2 confirmed by SPR: compounds identified by AS-MS (Example 5), individually synthesized
Description: as §1, with “1 and Example 6,” for “12 for Bcl-2,”, “AK-01, for Bcl-2.” for “13-1.”, “Sulfo-NHS-LC-LC-biotin” for “NHS-PEG4-Biotin”, “(GE Healthcare Japan Corp.).” for “(Cytiva).”, “C.′.” for “C.”
The obtained sensorgrams were treated with Biacore T200 Evaluation Software, and the equilibrium dissociation constant KD of each compound for Bel-2 was determined as shown in the following Table AK-02 and Table AK-03.

| AS-MS(%) N1 [1] [%] | AS-MS(%) N2 [1] [%] | AS-MS(%) N3 [1] [%] | AS-MS(%) N4 [1] [%] | pKd (Human Bcl-2 protein [2]) | binding to Bcl-2 confirmed by SPR (Human Bcl-2 protein [3]) | Structure (SMILES) | equilibrium dissociation constant KD compared with B2Q045-01 (KD=1.20 μM) or B2Q048-01 (KD=0.480 μM) (Human Bcl-2 protein [2]) | equilibrium dissociation constant compared with compound B2Q045-01 (Human Bcl-2 protein [3]) |
| --- | --- | --- | --- | --- | --- | --- | --- | --- |
| 36.4 | 42.2 | 58.2 | 62.7 | 5.97 | – | CCOc1cc(C(C)C(=O)Nc2ccc(F)cc2)cc(N2CCN(c3ccc(C(=O)NS(=O)(=O)c4ccc(N[C@H](CCN5CCOCC5)CSc5ccccc5)c([N+](=O)[O-])c4)cc3)CC2)c1 (stereo partly shown) [2-2-d1E04-2-0454] | smaller equilibrium dissociation constant KD | – |
| 53.4 | 45.9 | 33.3 | 36.8 | 5.61 | – | CCOc1cc(N2CCN(c3ccc(C(=O)NS(=O)(=O)c4ccc(N[C@H](CCN5CCOCC5)CSc5ccccc5)c([N+](=O)[O-])c4)cc3)CC2)cc2c1CCCC2C(=O)Nc1ccccc1 (stereo partly shown) [2-2-d1E04-2-0466] | – | – |
| 52.7 | 137.5 | 56.0 | 50.3 | 6.15 | – | CCOc1cc(C(C)C(=O)Nc2nc3ccccc3s2)cc(N2CCN(c3ccc(C(=O)NS(=O)(=O)c4ccc(N[C@H](CCN5CCOCC5)CSc5ccccc5)c([N+](=O)[O-])c4)cc3)CC2)c1 (stereo partly shown) [2-2-d1E04-2-0495] | smaller equilibrium dissociation constant KD | – |
| – | – | – | – | – | confirmed to bind by SPR | CCOc1cccc(-c2ccc(CN3CCN(c4ccc(C(=O)NS(=O)(=O)c5ccc(NCCSc6ccccc6)c([N+](=O)[O-])c5)cc4)CC3)cc2C)c1 [Compound B2Q047-01, 4-[4-[[4-(3-ethoxyphenyl)-3-methylphenyl]methyl]piperazin-1-yl]-N-[3-nitro-4-(2-phenylsulfanylethylamino)phenyl]sulfonylbenzamide] | – | smaller equilibrium dissociation constant Kp |
| – | – | – | – | – | confirmed to bind by SPR | CCOc1cncc(-c2ccc(CN3CCN(c4ccc(C(=O)NS(=O)(=O)c5ccc(NCCSc6ccccc6)c([N+](=O)[O-])c5)cc4)CC3)cc2C)c1 [Compound B2Q048-01, 4-[4-[[4-(5-ethoxypyridin-3-yl)-3-methylphenyl]methyl]piperazin-1-yl]-N-[3-nitro-4-(2-phenylsulfanylethylamino)phenyl]sulfonylbenzamide] | – | smaller equilibrium dissociation constant Kp |
| – | – | – | – | – | – | CCOc1cncc(-c2ccc(CN3CCN(c4ccc(C(=O)NS(=O)(=O)c5ccc(NCCSc6ccccc6)c([N+](=O)[O-])c5)cc4)CC3)c3ccccc23)c1 [Compound B2Q066-01, 4-[4-[[4-(5-ethoxypyridin-3-yl)naphthalen-1-yl]methyl]piperazin-1-yl]-N-[3-nitro-4-(2-phenylsulfanylethylamino)phenyl]sulfonylbenzamide] | – | smaller equilibrium dissociation constant Kp |
